In ChEMBL document CHEMBL4483862, “Open-source discovery of chemical leads for next-generation chemoprotective antimalarials” (2018):

Test system: Plasmodium berghei
Assay: Luciferase/luciferin-expressing antifolate-resistant parasites were used to infect a culture of HepG2 cells that were pre-incubated with compounds. Infected hepatocytes emit light due to the luciferase reaction. Assay results are presented as the percent inhibition of light emission compared to control. […]
Format: functional
Conditions: sporozoite; for IC90: read-out: LUCIFERASE INFECTION ASSAY - IC90

CC(C)Cc1nc2oc3c(NCC4CCCO4)ncnc3c2c2c1CCC2 (stereo not drawn)
IC50 (PBLUC_HILL_SLOPE 12.2, PBLUC_R_SQUARED 0.0912, read-out: LUCIFERASE INFECTION ASSAY - IC50): 3.77 µM | IC90: 4.52 µM

Cc1ccc(/C=C/c2ccc3ccccc3[n+]2C)cc1
IC50 (PBLUC_HILL_SLOPE 12.2, PBLUC_R_SQUARED 0.0729, read-out: LUCIFERASE INFECTION ASSAY - IC50): 8.36 µM | IC90: > 8.52 µM

CN(C)CCNC(=O)c1ccc(-c2cc(-c3cc(F)c(F)c(F)c3)cnc2N)cc1
IC50 (PBLUC_HILL_SLOPE 12.1, PBLUC_R_SQUARED 0.329, read-out: LUCIFERASE INFECTION ASSAY - IC50): 7.43 µM | IC90: > 7.96 µM

CC(C)(C)c1ccc(-c2n[nH]c(NC(=O)c3ccccc3Cl)c2Br)cc1
IC50 (PBLUC_HILL_SLOPE 11.9, PBLUC_R_SQUARED 0.175, read-out: LUCIFERASE INFECTION ASSAY - IC50): 7.07 µM | IC90: > 7.63 µM

CC(C)(C)NCC(O)CON=C1c2ccccc2-c2ccccc21 (stereo not drawn)
IC50 (PBLUC_HILL_SLOPE 12, PBLUC_R_SQUARED 0.408, read-out: LUCIFERASE INFECTION ASSAY - IC50): 9.17 µM | IC90: > 10 µM

Cc1nc(N2CCN(C(=O)C(C)C)CC2)c2c3c(sc2n1)CC(C)CC3 (stereo not drawn)
IC50 (PBLUC_HILL_SLOPE 12.1, PBLUC_R_SQUARED 0.479, read-out: LUCIFERASE INFECTION ASSAY - IC50): 9.05 µM | IC90: > 10 µM

CCc1ccccc1NC(=O)C(C)SCc1ccccc1 (stereo not drawn)
IC50 (PBLUC_HILL_SLOPE 11.9, PBLUC_R_SQUARED 0.654, read-out: LUCIFERASE INFECTION ASSAY - IC50): 9.84 µM | IC90: > 11 µM

CN(C)CCNC(=O)c1ccc(-c2cn3c(-c4ccc5c(c4)OCO5)cnc3cn2)cc1
IC50 (PBLUC_HILL_SLOPE 12, PBLUC_R_SQUARED 0.209, read-out: LUCIFERASE INFECTION ASSAY - IC50): > 7.68 µM | IC90: > 7.68 µM

O=C(Nc1nc2ccccc2[nH]1)C1CCN(c2ncc(C(F)(F)F)cc2Cl)CC1
IC50 (PBLUC_HILL_SLOPE 12.1, PBLUC_R_SQUARED 0.351, read-out: LUCIFERASE INFECTION ASSAY - IC50): 3.29 µM | IC90: 3.95 µM

CNc1snc(C)c1C(=O)N(C)Cc1ccccc1OC(F)(F)F
IC50 (PBLUC_HILL_SLOPE 12.1, PBLUC_R_SQUARED 0.631, read-out: LUCIFERASE INFECTION ASSAY - IC50): 0.386 µM | IC90: 0.463 µM

O=C(Nc1ccc(Cl)cc1)Nc1cc(-c2cc(-c3ccccc3)c(C(F)(F)F)s2)n[nH]1
IC50 (PBLUC_HILL_SLOPE 12.1, PBLUC_R_SQUARED 0.235, read-out: LUCIFERASE INFECTION ASSAY - IC50): 6.86 µM | IC90: > 7.13 µM

Cn1nc(C(C)(C)C)cc1C(=O)Nc1ccc2nc(-c3cccnc3)nn2c1
IC50 (PBLUC_HILL_SLOPE 11.9, PBLUC_R_SQUARED 0.235, read-out: LUCIFERASE INFECTION ASSAY - IC50): > 10 µM | IC90: > 10 µM

COc1ccccc1C(=O)NCc1cn(Cc2ccccc2)nc1-c1ccccc1
IC50 (PBLUC_HILL_SLOPE 11.8, PBLUC_R_SQUARED 0.553, read-out: LUCIFERASE INFECTION ASSAY - IC50): 9.21 µM | IC90: > 10 µM

O=C(COC(=O)C1(c2ccccc2F)CCCC1)NC1CCCCCCC1
IC50 (PBLUC_HILL_SLOPE 12.1, PBLUC_R_SQUARED 0.29, read-out: LUCIFERASE INFECTION ASSAY - IC50): > 10 µM | IC90: > 10 µM

N#Cc1nncn1Cc1csc(-c2cccs2)n1
IC50 (PBLUC_HILL_SLOPE 12.1, PBLUC_R_SQUARED 0.315, read-out: LUCIFERASE INFECTION ASSAY - IC50): 7.97 µM | IC90: 9.56 µM

CCOC(=O)c1cc(OC)c2cccc(CN3CCCCCC3(C)C(=O)NCC(C)C)c2c1 (stereo not drawn)
IC50 (PBLUC_HILL_SLOPE 12.1, PBLUC_R_SQUARED 0.495, read-out: LUCIFERASE INFECTION ASSAY - IC50): 6.85 µM | IC90: > 7.26 µM

O=C(/C(=N/Nc1ccc(OC(F)(F)F)cc1)C(=O)C(F)(F)F)c1cccs1
IC50 (PBLUC_HILL_SLOPE 12.2, PBLUC_R_SQUARED 0.21, read-out: LUCIFERASE INFECTION ASSAY - IC50): 7.58 µM | IC90: > 8.04 µM

CC(C)c1ccc(-c2cnc3sc(NC4CCC(O)CC4)nn23)cc1 (stereo not drawn)
IC50 (PBLUC_HILL_SLOPE 11.9, PBLUC_R_SQUARED 0.449, read-out: LUCIFERASE INFECTION ASSAY - IC50): 8.25 µM | IC90: > 9.26 µM

CC(C)n1ncc2cc(NC(=O)C3=Cc4ccccc4OC3)cnc21
IC50 (PBLUC_HILL_SLOPE 12, PBLUC_R_SQUARED 0.534, read-out: LUCIFERASE INFECTION ASSAY - IC50): 9.28 µM | IC90: > 10 µM

O=C(NC(=O)c1ccc(F)c(Cl)c1)Nc1nnc(C(F)(F)F)s1
IC50 (PBLUC_HILL_SLOPE 12, PBLUC_R_SQUARED 0.227, read-out: LUCIFERASE INFECTION ASSAY - IC50): 8.64 µM | IC90: > 8.95 µM

O=C(Nc1cccc(F)c1)Nc1ccc2nc(-c3ccoc3)nn2c1
IC50 (PBLUC_HILL_SLOPE 11.8, PBLUC_R_SQUARED 0.647, read-out: LUCIFERASE INFECTION ASSAY - IC50): 8.63 µM | IC90: > 10 µM

Cc1c(C(=O)c2ccccc2)oc2ccc(NC(=O)c3ccco3)cc12
IC50 (PBLUC_HILL_SLOPE 11.9, PBLUC_R_SQUARED 0.0568, read-out: LUCIFERASE INFECTION ASSAY - IC50): > 9.56 µM | IC90: > 9.56 µM

CCOC(=O)c1oc2ccccc2c1COC(=O)c1ccc(C)c(NC(=O)c2ccco2)c1
IC50 (PBLUC_HILL_SLOPE 12.1, 4.42, PBLUC_R_SQUARED 0.718, 0.471, read-out: LUCIFERASE INFECTION ASSAY - IC50): 6.8 µM | IC90: 7.27 µM

CC(=O)Nc1ccc(-c2cnc3ccc(Cc4ccc(F)cc4)nn23)cc1
IC50 (PBLUC_HILL_SLOPE 11.9, PBLUC_R_SQUARED 0.515, read-out: LUCIFERASE INFECTION ASSAY - IC50): 1.17 µM | IC90: 1.41 µM

Cc1nn(-c2ccccc2)c2nc(-c3cccs3)cc(C(=O)Nc3cc(Cl)ccc3N3CCN(C)CC3)c12
IC50 (PBLUC_HILL_SLOPE 12, PBLUC_R_SQUARED 0.52, read-out: LUCIFERASE INFECTION ASSAY - IC50): 7.85 µM | IC90: 9.44 µM

CCN1CCN(c2ccc(Cl)cc2NC(=O)c2sc(-c3ccccc3)nc2C)CC1
IC50 (PBLUC_HILL_SLOPE 12.2, PBLUC_R_SQUARED 0.286, read-out: LUCIFERASE INFECTION ASSAY - IC50): 3.53 µM | IC90: 4.23 µM

Cc1ccc(NC(=O)c2cnn(-c3cccc(Cl)c3)c2C(C)C)nc1
IC50 (PBLUC_HILL_SLOPE 12, PBLUC_R_SQUARED 0.586, read-out: LUCIFERASE INFECTION ASSAY - IC50): 3.58 µM | IC90: 4.3 µM

CC(NC(=O)Nc1ccc(C#N)cc1)c1ccc2ccccc2c1 (stereo not drawn)
IC50 (PBLUC_HILL_SLOPE 12.1, PBLUC_R_SQUARED 0.463, read-out: LUCIFERASE INFECTION ASSAY - IC50): 9.4 µM | IC90: > 10 µM

O=C(Nc1nccs1)C1CCCNC1 (stereo not drawn)
IC50 (PBLUC_HILL_SLOPE 12.1, PBLUC_R_SQUARED 0.548, read-out: LUCIFERASE INFECTION ASSAY - IC50): 8.7 µM | IC90: > 10 µM

CC(Sc1nc2ccsc2c(=O)n1C)c1ccc(F)cc1 (stereo not drawn)
IC50 (PBLUC_HILL_SLOPE 11.9, PBLUC_R_SQUARED 0.0437, read-out: LUCIFERASE INFECTION ASSAY - IC50): > 10 µM | IC90: > 10 µM

O=C(NC1CC1)c1ccc(-c2cnc3cnc(-c4cnn(Cc5ccccc5)c4)cn23)cc1
IC50 (PBLUC_HILL_SLOPE 12.1, PBLUC_R_SQUARED 0.417, read-out: LUCIFERASE INFECTION ASSAY - IC50): 6.99 µM | IC90: > 7.59 µM

Cc1[nH]c2ccccc2c1CC(=O)N1CCc2c(c(C(=O)NCc3cccnc3)nn2CC(C)C)C1
IC50 (PBLUC_HILL_SLOPE 12.1, PBLUC_R_SQUARED 0.505, read-out: LUCIFERASE INFECTION ASSAY - IC50): 5.48 µM | IC90: 6.57 µM

Cc1ccc(NC(=O)C2(C)CCN2Cc2ccccc2Cl)cc1O (stereo not drawn)
IC50 (PBLUC_HILL_SLOPE 11.9, PBLUC_R_SQUARED 0.388, read-out: LUCIFERASE INFECTION ASSAY - IC50): 8.78 µM | IC90: > 9.57 µM

COc1cc(-c2cc(-c3ccc(F)c(Cl)c3)cnc2N)ccc1O
IC50 (PBLUC_HILL_SLOPE 11.9, PBLUC_R_SQUARED 0.433, read-out: LUCIFERASE INFECTION ASSAY - IC50): 8.61 µM | IC90: > 9.57 µM
